Series [1] deals with tame oats (AVESA). The experiment in a line: Trial III field trial, postemergence crop injury. In kind it is in vivo, Avena sativa.
Series [2] concerns tame oats (AVESA). The experiment in a line: Trial IV field trial, postemergence crop injury. In kind it is in vivo, Avena sativa.
For series [3], the system named is spring barley (HORVS). The experiment in a line: Trial IV cont. field trial, postemergence crop injury. In kind it is in vivo, Hordeum vulgare L.
Series [4] concerns spring barley (HORVS). Description: Trial V field trial, postemergence crop injury. In kind it is in vivo, Hordeum vulgare L.
Series [5] relates to spring wheat (TRZAS). The conditions noted are these: Trial I.
Description: (§1) Five small plot field trials were established across various ecozones to evaluate the crop safety of florasulam and 4-amino-3-chloro-6-(4-chloro-2-fluoro-3-methoxy-phenyl)pyridine-2-carboxylic acid TEA (triethylamine) salt or of florasulam and 4-amino-3-chloro-6-(4-chloro-2-fluoro-3-methoxyphenyl)pyridine-2-carboxylic acid methyl ester, when applied alone or in combination, on spring cereals including spring wheat, spring barley and tame oats.
(§2) In Trials III, IV, and V the methyl ester of the compound of formula (I) was applied alone at rates of 5-10 g ae/ha using a formulation containing 200 grams acid equivalent per kilogram (g ae/kg) of the methyl ester with 0.5% v/v Turbocharge adjuvant. […] All herbicide treatments were applied post-emergence in the spring to early summer Herbicides were applied with bicycle- or tractor-mounted sprayers using carbon dioxide (CO2) as a propellant. The sprayers delivered a uniform spray pattern that provided thorough coverage of the foliage using a 100 liter per hectare (L/ha) spray volume. At the time of herbicide applications, spring barley, spring wheat and tame oats were at the two leaf stage to the seven leaf, three tiller stage. Phytotoxicity to cereal crops was visually assessed as percent overall injury, compared to an untreated control plot. The overall injury assessments were based on visual ratings of growth inhibition, chlorosis, and delay in maturity. At late ratings, percent visual seed head deformity was also assessed. Trials were designed as randomized complete blocks with four replicates. In general, three to four replicates were assessed for each treatment.
(§3) Colby's equation is: Expected=A+B−(A×B/100) • A=observed efficacy of active ingredient A at the same concentration as used in the mixture; • B=observed efficacy of active ingredient B at the same concentration as used in the mixture.
Series [6] relates to spring wheat (TRZAS). The conditions noted are these: Trial II.
Description: as §1, §2, §3

The structures appear in SMILES notation. Read-outs that look alike come from different tables or passages of the source.

Regarding `COC(=O)c1nc(-c2ccc(Cl)c(OC)c2F)cc(N)c1Cl` [Compound II], in series [1] (Compound II 5 g ae/ha alone), the “Percent (%) Visual Head Deformity 70 DAT Obs” value stood at 7.5 cd %, the “Percent (%) Visual Injury 7 DAT Obs” value was found to be 0.0 d %, the “Percent (%) Visual Injury 16 DAT Obs” value came out at 2.5 de % and the “Percent (%) Visual Injury 31 DAT Obs” value came to 5.0 fg %. Further, the “Percent (%) Visual Injury 70 DAT Obs” value in series [1] (Compound II 5 g ae/ha alone) is reported as 15.8 def %. Also, in series [1] (Compound II 10 g ae/ha alone), the “Percent (%) Visual Head Deformity 70 DAT Obs” value is given as 15.0 bcd %, the “Percent (%) Visual Injury 7 DAT Obs” value came out at 0.0 d %, the “Percent (%) Visual Injury 16 DAT Obs” value came to 13.8 cde % and the “Percent (%) Visual Injury 31 DAT Obs” value stood at 25.0 de %. Moreover, in series [1] (Compound II 10 g ae/ha alone), the “Percent (%) Visual Injury 70 DAT Obs” value was 33.8 bcd %. Also, in series [2] (Compound II 5 g ae/ha alone), the “Percent (%) Visual Injury 7 DAT Observed” value was found to be 0.0 d %, the “Percent (%) Visual Injury 14 DAT Observed” value is 2.0 cde %, the “Percent (%) Visual Injury 28 DAT Observed” value stood at 3.3 de % and the “Percent (%) Visual Injury 53 DAT Observed” value is 2.5 fgh %. Also, in series [2] (Compound II 10 g ae/ha alone), the “Percent (%) Visual Injury 7 DAT Observed” value is reported as 1.3 bcd %, the “Percent (%) Visual Injury 14 DAT Observed” value was 9.5 abc %, the “Percent (%) Visual Injury 28 DAT Observed” value amounted to 14.5 ab % and the “Percent (%) Visual Injury 53 DAT Observed” value is listed as 9.4 abc %. In series [3] (Compound II 5 g ae/ha alone), the “Percent (%) Visual Head Deformity Obs” value stood at 0.0 a %, the “Percent (%) Visual Injury 7 DAT Obs” value came out at 0.0 e %, the “Percent (%) Visual Injury 14 DAT Obs” value worked out at 0.0 c % and the “Percent (%) Visual Injury 28 DAT Obs” value amounted to 3.3 de %. In series [3] (Compound II 5 g ae/ha alone), the “Percent (%) Visual Injury 70 DAT Obs” value was determined as 2.5 fgh %. In series [3] (Compound II 10 g ae/ha alone), the “Percent (%) Visual Head Deformity Obs” value was 1.3 a %, the “Percent (%) Visual Injury 7 DAT Obs” value worked out at 0.0 e %, the “Percent (%) Visual Injury 14 DAT Obs” value was determined as 0.0 c % and the “Percent (%) Visual Injury 28 DAT Obs” value turned out to be 14.5 ab %. Further, the “Percent (%) Visual Injury 70 DAT Obs” value in series [3] (Compound II 10 g ae/ha alone) is 9.4 abc %. Moreover, in series [4] (Compound II 5 g ae/ha alone), the “Percent (%) Head Deformity 64 DAT Obs” value came to 0.3 b %, the “Percent (%) Injury Visual 15 DAT Obs” value is on record as 0.5 a %, the “Percent (%) Visual Injury 27 DAT Obs” value is recorded as 1.0 c % and the “Percent (%) Visual Injury 49 DAT Obs” value came out at 0.0 c %. Also, in series [4] (Compound II 10 g ae/ha alone), the “Percent (%) Head Deformity 64 DAT Obs” value was 21.8 ab %, the “Percent (%) Injury Visual 15 DAT Obs” value turned out to be 0.5 a %, the “Percent (%) Visual Injury 27 DAT Obs” value was determined as 0.0 c % and the “Percent (%) Visual Injury 49 DAT Obs” value amounted to 0.5 bc %.

Consider `COc1c(Cl)ccc(-c2cc(N)c(Cl)c(C(=O)O)n2)c1F` [Compound I], for which, in series [5] (Compound I 17.5 g ae/ha alone), the “Percent (%) Visual Incidence Head Deformity 71 DAT Obs” value is 20 d-g % and the “Percent (%) Visual Injury 71 DAT Obs” value was 12.5 cd %. Also, in series [5] (Compound I 35 g ae/ha alone), the “Percent (%) Visual Incidence Head Deformity 71 DAT Obs” value is 60 a % and the “Percent (%) Visual Injury 71 DAT Obs” value was determined as 32.5 a %. In addition, in series [6] (Compound I 17.5 g ae/ha alone), the “Percent (%) Visual Incidence Head Deformity 55 DAT Obs” value came to 7.5 cde % and the “Percent (%) Visual Injury 55 DAT Obs” value is recorded as 5.8 de %. Further, in series [6] (Compound I 35 g ae/ha alone), the “Percent (%) Visual Incidence Head Deformity 55 DAT Obs” value is listed as 43.8 ab % and the “Percent (%) Visual Injury 55 DAT Obs” value was found to be 35 a %.

On to `COc1ncc(F)c2nc(S(=O)(=O)Nc3c(F)cccc3F)nn12` [Florasulam, 2′,6′,8-trifluoro-5-methoxy[1,2,4]triazolo[1,5-c]pyrimidine-2-sulfonanilide, reference compound], for which, in series [5] (Florasulam 5 g ai/ha alone), the “Percent (%) Visual Incidence Head Deformity 71 DAT Obs” value was determined as 0.0 g % and the “Percent (%) Visual Injury 71 DAT Obs” value turned out to be 0 e %. Moreover, in series [6] (Florasulam 5 g ai/ha alone), the “Percent (%) Visual Incidence Head Deformity 55 DAT Obs” value worked out at 0.0 e % and the “Percent (%) Visual Injury 55 DAT Obs” value is reported as 0.0 e %.

Source of the values: US9226498B2.
